In data set [1] the test system is Puccinia recondita f. sp. tritici. The data set is described as follows: Puccinia recondita f. sp. tritici / wheat / leaf disc preventative (brown rust). Type of data set: in vivo. The following applies: foliar, wheat leaf segments cv. Kanzler, compared to untreated control leaf disks, read-out: disease control. How it is done: Puccinia recondita f. sp. tritici/Wheat/Leaf Disc Preventative (Brown Rust) Wheat leaf segments cv. Kanzler were placed on agar in multiwell plates (24-well format) and sprayed with the formulated test compound diluted in water. The leaf disks were inoculated with a spore suspension of the fungus 1 day after application. The inoculated leaf segments were incubated at 19° C. and 75% rh under a light regime of 12 h light/12 h darkness in a climate cabinet and the activity of a compound was assessed as percent disease control compared to untreated when an appropriate level of disease damage appears in untreated check leaf segments (7-9 days after application).

The test system is the same in data set [2]. The data set is described as follows: Puccinia recondita f. sp. tritici / wheat / leaf disc curative (brown rust). Type of data set: in vivo. The following applies: foliar, 24 h, wheat leaf segments cv. Kanzler, curative (applied 1 day after inoculation), compared to untreated control leaf disks, read-out: disease control. The method, then: Puccinia recondita f. sp. tritici/Wheat/Leaf Disc Curative (Brown Rust) Wheat leaf segments cv. Kanzler are placed on agar in multiwell plates (24-well format). The leaf segments are inoculated with a spore suspension of the fungus. Plates were stored in darkness at 19° C. and 75% rh. The formulated test compound diluted in water was applied 1 day after inoculation.

In the next data set the test system is Phakopsora pachyrhizi. Put plainly: Phakopsora pachyrhizi / soybean / leaf disk preventative (soybean rust). The following applies: foliar, soybean leaf disks, compared to untreated control leaf disks, read-out: disease control. The class given is in vivo. The method, then: Phakopsora pachyrhizi/Soybean/Leaf Disk Preventative (Soybean Rust) Four-week old soybean plants are sprayed in a spray chamber with the formulated test compound diluted in water. Leaf disks are cut from treated plants and placed on agar into 24-well plates one day after application. Leaf disks are inoculated by spraying them with a spore suspension on their lower leaf surface. After an incubation period in a climate cabinet of 24-36 hours in darkness at 20° C. and 75% rh, the leaf disks are then kept at 20° C. with 12 h light/day and 75% rh. The percentage leaf disk area covered by disease is assessed when an appropriate level of disease appears on untreated check plants (12-14 days after application).

Data set [3] concerns Blumeria graminis f. sp. tritici (Erysiphe graminis f. sp. tritici). The data set is described as follows: Blumeria graminis f. sp. tritici / wheat / leaf disc preventative (powdery mildew on wheat). The class given is in vivo. The following applies: foliar, wheat leaf segments cv. Kanzler, compared to untreated control leaf disks, read-out: disease control. The text has this:
Blumeria graminis f. sp. tritici (Erysiphe graminis f. sp. tritici)/Wheat/Leaf Disc Preventative (Powdery Mildew on Wheat) Wheat leaf segments cv. Kanzler were placed on agar in a multiwell plate (24-well format) and sprayed with the formulated test compound diluted in water. The leaf disks were inoculated by shaking powdery mildew infected plants above the test plates 1 day after application.

Usually melting point stands for the temperature of the solid-liquid transition.

Bounds are passed on as bounds.

As to `CCOc1cc(/N=C/N(C)CC)c(C)cc1C(O)(c1ccccc1)C(F)(F)F` (centres unmarked) [Compound E1.002], the melting point was 148 to 151 °C. In addition, the pest or weed control at 200 ppm in data set [1] was not below 80%. In addition, the pest or weed control at 200 ppm in data set [2] was not below 80%. Also, in the data set on Phakopsora pachyrhizi, the pest or weed control at 200 ppm is not below 80%.

`COc1cc(/N=C/N(C)C(C)C)c(C)cc1C(O)(c1ccccc1)C(F)(F)F` (centres unmarked) [Compound E1.009] came in with a melting point of 110 to 111 °C. The pest or weed control at 200 ppm in data set [1] is not below 80%. Further, in data set [2], the pest or weed control at 200 ppm was not below 80%.

Take `CCN(C)/C=N/c1cc(OC)c(C(O)(c2ccc(C(F)(F)F)cc2)C(F)(F)F)cc1C` (centres unmarked) [Compound E1.019]: the melting point lay within 124 to 126 °C. The pest or weed control at 200 ppm in data set [1] was not below 80%. The pest or weed control at 200 ppm in data set [3] was not below 80%. The pest or weed control at 200 ppm in data set [2] is not below 80%.

Take `CCN(C)/C=N/c1cc(OC)c(C(O)(c2ccc(Cl)cc2)C(F)(F)F)cc1C` (centres unmarked) [Compound E1.021]: the melting point lay in the range of 134 to 135 °C. Besides, the pest or weed control at 200 ppm in data set [1] was not below 80%. In addition, the pest or weed control at 200 ppm in data set [3] was not below 80%. The pest or weed control at 200 ppm in data set [2] was not below 80%.

The compound `CCN(C)/C=N/c1cc(OC)c(C(O)(c2ccc(Br)cc2)C(F)(F)F)cc1C` (centres unmarked) [Compound E1.025] yielded a melting point of 127 to 129 °C. In addition, in data set [1], the pest or weed control at 200 ppm was not below 80%. For the same compound, the pest or weed control at 200 ppm in data set [3] is not below 80%. Moreover, in data set [2], the pest or weed control at 200 ppm was not below 80%.

`CCN(C)/C=N/c1cc(OC)c(C(O)(c2ccccc2SC)C(F)(F)F)cc1C` (centres unmarked) [Compound E1.032] had a melting point of 104 to 106 °C. Further, the pest or weed control at 200 ppm in data set [1] was not below 80%. In addition, the pest or weed control at 200 ppm in data set [3] was not below 80%. Further, the pest or weed control at 200 ppm in data set [2] is not below 80%.

In turn, `CCN(C)/C=N/c1cc(OC)c(C(O)(c2ccccc2S(C)(=O)=O)C(F)(F)F)cc1C` (centres unmarked) [Compound E1.036] returned a melting point of 177 to 180 °C. Moreover, in data set [1], the pest or weed control at 200 ppm is not below 80%. Besides, the pest or weed control at 200 ppm in data set [2] was not below 80%.

In the case of `CCN(C)/C=N/c1cc(OC)c(C(O)(c2ccc(SC(F)(F)F)cc2)C(F)(F)F)cc1C` (centres unmarked) [Compound E1.037], the melting point lay within 64 to 66 °C. The pest or weed control at 200 ppm in data set [3] is not below 80%. For the same compound, in data set [2], the pest or weed control at 200 ppm is not below 80%. The pest or weed control at 200 ppm in the data set with Phakopsora pachyrhizi was not below 80%.

In turn, `CCOC(=O)c1ccc(C(O)(c2cc(C)c(/N=C/N(C)CC)cc2OC)C(F)(F)F)cc1` (centres unmarked) [Compound E1.039] displayed a melting point of 118 to 120 °C. The pest or weed control at 200 ppm in data set [3] is not below 80%. Also, in data set [2], the pest or weed control at 200 ppm is not below 80%.

In turn, `CCN(C)/C=N/c1cc(OC)c(C(O)(c2ccc(C#N)cc2)C(F)(F)F)cc1C` (centres unmarked) [Compound E1.040] yielded a melting point of 167 to 169 °C. Moreover, in data set [3], the pest or weed control at 200 ppm is not below 80%. The pest or weed control at 200 ppm in data set [2] was not below 80%.

Regarding `CCN(C)/C=N/c1cc(OC)c(C(O)(c2ccc(SC)cc2)C(F)(F)F)cc1C` (centres unmarked) [Compound E1.041], the melting point fell in the range of 89 to 91 °C. Further, the pest or weed control at 200 ppm in data set [3] was not below 80%. Further, the pest or weed control at 200 ppm in data set [2] is not below 80%.

Take `CCN(C)/C=N/c1cc(OC)c(C(O)(c2ccc(O)cc2)C(F)(F)F)cc1C` (centres unmarked) [Compound E1.043]: the melting point is 240 to 242 °C. Besides, the pest or weed control at 200 ppm in data set [3] was not below 80%. Besides, the pest or weed control at 200 ppm in data set [2] is not below 80%.

As to `CCN(C)/C=N/c1cc(OC)c(C(O)(c2cccc(OC(F)F)c2)C(F)(F)F)cc1C` (centres unmarked) [Compound E1.044], the melting point fell in the range of 119 to 121 °C. Besides, the pest or weed control at 200 ppm in data set [3] is not below 80%. For the same compound, the pest or weed control at 200 ppm in data set [2] is not below 80%. Further, in the data set on Phakopsora pachyrhizi, the pest or weed control at 200 ppm was not below 80%.

In the case of `CCN(C)/C=N/c1cc(OC)c(C(O)(c2ccc(OC(F)F)cc2)C(F)(F)F)cc1C` (centres unmarked) [Compound E1.045], the melting point is 85 to 87 °C. Moreover, in data set [3], the pest or weed control at 200 ppm is not below 80%. In addition, in data set [2], the pest or weed control at 200 ppm is not below 80%. Also, the pest or weed control at 200 ppm with Phakopsora pachyrhizi was not below 80%.

`CCN(C)/C=N/c1cc(OC)c(C(O)(C#Cc2ccccc2)C(F)(F)F)cc1C` (centres unmarked) [Compound E1.073]: the melting point lay in the range of 88 to 90 °C. The pest or weed control at 200 ppm in data set [1] is not below 80%.

Turning to `CCN(C)/C=N/c1cc(OC)c(C(O)(C#CC2CCCCC2)C(F)(F)F)cc1C` (centres unmarked) [Compound E1.085], the melting point is 62 to 64 °C. Further, the pest or weed control at 200 ppm in data set [2] was not below 80%.

Compound `CCN(C)/C=N/c1cc(OC)c(C(O)(Cc2ccc(Cl)cc2)C(F)(F)F)cc1C` (centres unmarked) [Compound E1.090] came in with a melting point of 63 to 65 °C. Further, the pest or weed control at 200 ppm in data set [3] is not below 80%. For the same compound, the pest or weed control at 200 ppm in data set [2] is not below 80%. Further, in the data set on Phakopsora pachyrhizi, the pest or weed control at 200 ppm is not below 80%.

On to `CCN(C)/C=N/c1cc(OC)c(C(O)(Cc2cc(C)nc(OC)n2)C(F)(F)F)cc1C` (centres unmarked) [Compound E1.094], for which the melting point lay in the range of 117 to 119 °C. For the same compound, the pest or weed control at 200 ppm in data set [1] is not below 80%. The pest or weed control at 200 ppm in data set [3] was not below 80%. In addition, the pest or weed control at 200 ppm in data set [2] is not below 80%.

As for `CCN(C)/C=N/c1cc(OC)c(C(O)(c2ccc(OC)nc2)C(F)(F)F)cc1C` (centres unmarked) [Compound E1.107], the melting point was 100 to 102 °C. In addition, the pest or weed control at 200 ppm in data set [1] is not below 80%. Further, in data set [3], the pest or weed control at 200 ppm was not below 80%. Besides, the pest or weed control at 200 ppm in data set [2] is not below 80%.

In turn, `CCN(C)/C=N/c1cc(SC)c(C(O)(c2ccccc2)C(F)(F)F)cc1C` (centres unmarked) [Compound E1.113] gave a melting point of 160 to 165 °C. For the same compound, the pest or weed control at 200 ppm in data set [3] is not below 80%. The pest or weed control at 200 ppm in data set [2] was not below 80%.

In turn, `CCN(C)/C=N/c1cc(OC)c(C(O)(c2ccccc2)C(C)C)cc1C` (centres unmarked) [Compound E1.124] had a melting point of 82 to 84 °C. Further, the pest or weed control at 200 ppm in data set [1] is not below 80%. In addition, the pest or weed control at 200 ppm in data set [2] was not below 80%. In addition, the pest or weed control at 200 ppm with Phakopsora pachyrhizi is not below 80%.

With `CCN(/C=N/c1cc(OC)c(C(O)(c2ccccc2)C(F)(F)F)cc1C)CC` (centres unmarked) [Compound E1.139], the melting point was 102 to 104 °C.

On to `COc1cc(/N=C/N(C)C(C)C)c(C)cc1C(O)(C=C(C)C)C(F)(F)F` (centres unmarked) [Compound E1.141], for which the melting point fell in the range of 77 to 79 °C.

In turn, `CCN(C)/C=N/c1cc(OC)c(C(O)(c2cccc(F)c2F)C(F)(F)F)cc1C` (centres unmarked) [Compound E1.143] registered a melting point of 130 to 132 °C.

With `COc1cc(/N=C/N(C)C(C)C)c(C)cc1C(O)(c1cccc(F)c1F)C(F)(F)F` (centres unmarked) [Compound E1.144], the melting point lay within 97 to 99 °C.

Take `CCN(C)/C=N/c1cc(OC)c(C(O)(c2cc(F)ccc2C)C(F)(F)F)cc1C` (centres unmarked) [Compound E1.145]: the melting point was 95 to 97 °C.

In the case of `COc1cc(/N=C/N(C)C(C)C)c(C)cc1C(O)(c1cc(F)ccc1C)C(F)(F)F` (centres unmarked) [Compound E1.146], the melting point is 116 to 118 °C.

The compound `CCN(C)/C=N/c1cc(OC)c(C(O)(c2c(F)cccc2F)C(F)(F)F)cc1C` (centres unmarked) [Compound E1.147] showed a melting point of 128 to 130 °C.

In the case of `COc1cc(/N=C/N(C)C(C)C)c(C)cc1C(O)(c1c(F)cccc1F)C(F)(F)F` (centres unmarked) [Compound E1.148], the melting point was 119 to 121 °C.

As for `COc1cc(/N=C/N(C)C(C)C)c(C)cc1C(O)(c1ccccc1C)C(F)(F)F` (centres unmarked) [Compound E1.148], the melting point was 138 to 140 °C.

In turn, `COc1cc(/N=C/N(C)C(C)C)c(C)cc1C(O)(c1cc(F)cc(F)c1)C(F)(F)F` (centres unmarked) [Compound E1.149] had a melting point of 110 to 112 °C.

In the case of `COc1cc(/N=C/N(C)C(C)C)c(C)cc1C(O)(c1ccccc1F)C(F)(F)F` (centres unmarked) [Compound E1.150], the melting point fell in the range of 86 to 88 °C.

Turning to `COc1cc(/N=C/N(C)C(C)C)c(C)cc1C(O)(c1ccccc1Cl)C(F)(F)F` (centres unmarked) [Compound E1.151], the melting point was 67 to 69 °C.

`COc1cc(/N=C/N(C)C(C)C)c(C)cc1C(O)(c1cccc(F)c1)C(F)(F)F` (centres unmarked) [Compound E1.152] returned a melting point of 92 to 94 °C.

In turn, `CCN(C)/C=N/c1cc(OC)c(C(O)(c2ccccc2)C(F)(F)F)cc1F` (centres unmarked) [Compound E1.153] displayed a melting point of 144 to 146 °C.

In turn, `CCN(C)/C=N/c1cc(OC)c(C(O)(c2cccnc2F)C(F)(F)F)cc1C` (centres unmarked) [Compound E1.157] came in with a melting point of 113 to 115 °C.

In the case of `COc1cc(/N=C/N(C)C(C)C)c(C)cc1C(O)(c1cccnc1F)C(F)(F)F` (centres unmarked) [Compound E1.158], the melting point was in the range of 120 to 122 °C.
